Ends that are not written are not given here.

What all share (format): in vivo
For experiment [1], the system named is rat with pulmonary fibrosis induced by bleomycin. Put plainly: Rat body weight, intravenous injection (Examples 20-21). The conditions noted are these: Day 14/Day 0; intravenous injection 10 mg/kg once a day, 4th to 13th day after bleomycin 4 mg/kg; Mean ± SEM. An excerpt:
The model and the administration route were referred to Example 15. The experimental rats in the control group, the model group, and the treatment groups described in Example 15 were weighted every day from the 1st day until the 14th day. When weighing, the “unstable weighing” of the electronic balance was selected, and an appropriate number of weighing and a degree of tolerable instability during the reading phase were set according to the instructions to weigh and record the readings. The result is shown in the weight ratios in FIG. 2 (Day 14/Day 0).
(§1) The rats were weighed before administration, intramuscularly injected with 65 mg/kg Zoletil anesthetic solution. After the rats entered the stage III anesthesia, the experimental rats were fixated in the lateral decubitus. Gavage needle size 12 was inserted into rat trachea through oral cavity along the glottis to instill sterile saline or bleomycin (4 mg/kg) (Day 0). After the anesthesia, the rats in control group were intratracheally instilled with an equal volume of sterile saline, and the rats in model group and treatment groups were intratracheally instilled with bleomycin (4 mg/kg). On the 4th day, the sterile saline or peptide drug was injected through the tail vein once a day until the 13th day. The rats were sacrificed on the 14th day for subsequent experiments. […]

Experiment [2] shares this test system. Put plainly: Lung coefficient, intratracheal instillation (Example 17). Conditions: lung mass (mg)/body weight (g), 8 mg/kg peptide + 4 mg/kg bleomycin, Mean ± SEM. The method, then:
(§2) The rats in Example 2 were weighed and sacrificed by anesthesia overdose. Lung tissue of both sides of the rats was taken, and the connective tissue around the lung tissue was carefully removed. After washing with saline and dried with a filter paper, the wet weight of the whole lung was weighted by an electronic balance. After the wet weight of the whole lung was weighted by the electronic balance, the lung coefficient was calculated according to the formula, lung coefficient=lung mass (mg)/body weight (g) (the result is shown in FIG. 1).
(§3) The rats in model group were intratracheally instilled with bleomycin (4 mg/kg); after anesthesia, the rats in treatment groups were intratracheally instilled with bleomycin (4 mg/kg) and corresponding therapeutic drug (8 mg/kg) simultaneously. The remaining implementation steps were the same as the description of Example 9.
The experimental rats of the control group, the model group and the treatment groups of Example 15 were taken to determine the lung coefficient. The implementation steps were the same as the description of Example 2.

Experiment [3] shares this test system. Put plainly: HE staining score, intravenous injection (Example 23). The conditions noted are these: inflammatory pathology score, grade 0 to 3; intravenous injection 10 mg/kg once a day, 4th to 13th day after bleomycin 4 mg/kg; Mean ± SEM. An excerpt:
(§4) The lung tissue of the rats of Example 2 was taken, fixed with 4% paraformaldehyde and embedded in paraffin. The wax block embedded the lung tissue was sectioned along the largest cross section. Pathological changes in lung tissue were observed using hematoxylin-eosin (HE) staining. Pathological changes in lung tissue were observed under a light microscope (low magnification) at a magnification of 100 times (the result is shown in FIG. 2).
(§5) According to the method provided by Szapie, et al., the degree of alveolitis was graded according to the range of lesions and could be divided into 0 to 3 grades, corresponding to 0 to 3 points. The evaluation indexes for the degree of alveolitis are as follows: grade 0, no alveolitis; grade 1, mild alveolitis, manifested as a slight increase in alveolar septum, infiltration of monocytes, near the pleura or localized, with a lesion range of less than 20% without alveolar structural damage; grade 2, moderate alveolitis, the lesion ranges from 20% to 50%, relatively severe near the pleura; grade 3, severe alveolitis, diffusely distributed, the lesion range is more than 50%, with pulmonary parenchymal lesion occasionally.
The rats were weighed before administration, intramuscularly injected with 65 mg/kg Zoletil anesthetic solution. After the rats entered the stage III anesthesia, the experimental rats were fixated in the lateral decubitus. […]

Experiment [4] shares this test system. As to the kind of experiment: Masson staining score, intratracheal instillation (Example 19). Conditions: fibrosis pathology score, grade 0 to 8, 8 mg/kg peptide + 4 mg/kg bleomycin, Mean ± SEM.
From the text: The lung tissue of the rats of Example 9 was taken, fixed with 4% paraformaldehyde and embedded in paraffin. The wax block embedded the lung tissue was sectioned along the largest cross section. Pathological changes in lung tissue were observed using staining by Masson's trichrome stain (Masson). Pathological changes in lung tissue were observed under a light microscope (low magnification) at a magnification of 100 times (the result is shown in FIG. 15).
According to the Modified Ashcroft scale scoring method, the degree of pulmonary fibrosis was evaluated according to the range of lesions and could be divided into 0 to 8 grades.
as §3
The lung tissue of the control group, the model group and the treatment groups of Example 15 was taken and subjected to Masson staining and scoring. The specific implementation steps were the same as the description of Example 13.

Experiment [5] concerns tgf-β. Put plainly: mRNA content of tgf-β in rat lung tissue by qPCR (Example 26). Conditions: 18S RNA internal reference; intravenous injection 10 mg/kg once a day, 4th to 13th day after bleomycin 4 mg/kg; Mean ± SEM. As for the experimental part:
as §1
The rat lung tissue in the control group, the model group and the treatment groups of Example 20 was taken. […] After obtaining cDNA using reverse transcription, fluorescence quantitative PCR (qPCR) kit (Applied Biosystems, Cat. No. 4319413E) was used to detect the mRNA content of tgf-β (forward primer: GAGGTGACCTGGGCACCAT, reverse primer: GGCCATGAGGAGCAGGAA), 18S RNA was used as an internal reference, and the result is shown in the tgf-β values in Table 4.
A general note: Real-time PCR tracks product formation cycle by cycle.

For experiment [6], the system named is rat with pulmonary fibrosis induced by bleomycin. As to the kind of experiment: Lung coefficient, intravenous injection (Example 22). The conditions noted are these: lung mass (mg)/body weight (g); intravenous injection 10 mg/kg once a day, 4th to 13th day after bleomycin 4 mg/kg; Mean ± SEM. The method, then: as §2
The rats were weighed before administration, intramuscularly injected with 65 mg/kg Zoletil anesthetic solution. After the rats entered the stage III anesthesia, the experimental rats were fixated in the lateral decubitus. Gavage needle size 12 was inserted into rat trachea through oral cavity along the glottis to instill sterile saline or bleomycin (4 mg/kg) (Day 0). After the anesthesia, the rats in control group were intratracheally instilled with an equal volume of sterile saline, and the rats in model group and treatment groups were intratracheally instilled with bleomycin (4 mg/kg). […]
The experimental rats of the control group, the model group and the treatment groups of Example 20 were taken, the lung weight was measured and the lung coefficient was calculated. […]

Experiment [7] shares this test system. Put plainly: HE staining score, intratracheal instillation (Example 18). The conditions noted are these: inflammatory pathology score, grade 0 to 3, 8 mg/kg peptide + 4 mg/kg bleomycin, Mean ± SEM.
From the text: as §4
as §5, with “occasionally. […]” for “occasionally.”

Consider YRVRFLAKENVTQDAEDN [N1], for which, in experiment [1], the “Weight Ratio” value turned out to be 1.05 ± 0.02. In addition, the “Lung Coefficient” value in experiment [2] worked out at 8.49 ± 0.09; in experiment [6] it was 9.25 ± 0.28. For the same sequence, the “HE Score” value in experiment [3] turned out to be 2.44 ± 0.24; in experiment [7], 2.45 ± 0.09. Besides, the “Masson Score” value in experiment [4] is 3.93 ± 0.09. The “tgf-β (mRNA content of tgf-β in lung tissue)” value in experiment [5] amounted to 2.50 ± 0.04.
